In US10906889B2, “Polycyclic inhibitors of cyclin-dependent kinase 7 (CDK7)” (Dana-Farber Cancer Institute, Inc., priority 2013, dated 2021):
Like-named read-outs stand apart in the source and are kept apart here. Blank lines part the entries; values can stand above or below the compound they belong to.

Experiments:
CDK9/cyclin K = CDK9/cyclin K (Homo sapiens, UniProt P50750); assay: LanthaScreen Eu kinase assay (Life Technologies), CDK9/cyclin K
CDK9/cyclin T1 = CDK9/cyclin T1 (Homo sapiens, UniProt P50750); assay: Adapta kinase assay (Life Technologies), CDK9/cyclin T1; details: for inhibition at 0.1 µM: read-out: CDK9^a,e percent inhibition; for inhibition at 1 µM: read-out: CDK9^b,e percent inhibition
CDK8 = target: T1, CDK8 (Homo sapiens, UniProt P49336); assay: LanthaScreen Eu kinase assay (Life Technologies), CDK8; format: binding; details: co-factor cyclin C; for inhibition at 0.1 µM: compound tested at 100 nM, read-out: CDK8^a percent inhibition; for inhibition at 1 µM: compound tested at 1 μM, read-out: CDK8^b percent inhibition
T1 construct: purchased Life Technologies (assay service)

CDK2 = target: T2, CDK2 (Homo sapiens, UniProt P24941); assay: Z'-Lyte kinase assay (Life Technologies), CDK2; format: biochemical; details: co-factor cyclin A; for inhibition at 0.1 µM: compound tested at 100 nM, read-out: CDK2^a percent inhibition; for inhibition at 1 µM: compound tested at 1 μM, read-out: CDK2^b percent inhibition
T2 construct: purchased Life Technologies (assay service)

CDK7 = target: T3, CDK7 (Homo sapiens, UniProt P50613); assay: Adapta kinase assay (Life Technologies), CDK7; format: biochemical
T3 construct: purchased Life Technologies (assay service)

CDK5/p25 = CDK5/p25 (Homo sapiens, UniProt Q00535); assay: Z'-Lyte kinase assay (Life Technologies), CDK5/p25; details: for inhibition at 0.1 µM: read-out: CDK5^a,c percent inhibition; for inhibition at 1 µM: read-out: CDK5^b,c percent inhibition
HL60 = assay: Cell proliferation (CellTiter-Glo, 72 hour), HL60; format: cell-based; details: Homo sapiens, HL-60, blood cancer cell line, read-out: HL60 inhibition of proliferation (IC50)
Hs863T = assay: Cell proliferation (CellTiter-Glo, 72 hour), Hs863T; format: cell-based; details: Ewing's sarcoma cell line, read-out: Hs863T inhibition of proliferation (IC50)
MLK3 = target: T4, MLK3 (Homo sapiens, UniProt Q16584); assay: LanthaScreen Eu kinase assay (Life Technologies), MLK3; format: binding; details: for IC50: Table 2, read-out: MLK3 (calculated IC50); for inhibition at 0.1 µM: compound tested at 100 nM, read-out: MLK3^a percent inhibition
T4 construct: purchased Life Technologies (assay service)

MCF7 = assay: Cell proliferation (CellTiter-Glo, 72 hour), MCF7; format: cell-based; details: Homo sapiens, breast cancer cell line, read-out: MCF7 inhibition of proliferation (IC50)
T47D = assay: Cell proliferation (CellTiter-Glo, 72 hour), T47D; format: cell-based; details: Homo sapiens, breast cancer cell line, read-out: T47D inhibition of proliferation (IC50)
A673 = assay: Cell proliferation (CellTiter-Glo, 72 hour), A673; format: cell-based; details: Homo sapiens, Ewing's sarcoma cell line, read-out: A673 inhibition of proliferation (IC50)
MV4-11 = assay: Cell proliferation (CellTiter-Glo, 72 hour), MV4-11; format: cell-based; details: Homo sapiens, blood cancer cell line, read-out: MV4-11 inhibition of proliferation (IC50)
Hs822T = assay: Cell proliferation (CellTiter-Glo, 72 hour), Hs822T; format: cell-based; details: Ewing's sarcoma cell line, read-out: Hs822T inhibition of proliferation (IC50)
hTERT-HME1 = assay: Cell proliferation (CellTiter-Glo, 72 hour), hTERT-HME1; format: cell-based; details: breast cancer cell lines table, read-out: hTERT-HME1 inhibition of proliferation (IC50)
Jurkat cells = assay: Cell proliferation (CellTiter-Glo, 72 hour), Jurkat; format: cell-based; details: Homo sapiens, blood cancer cell line
SAOS = assay: Cell proliferation (CellTiter-Glo, 72 hour), SAOS; format: cell-based; details: osteosarcoma cell line, read-out: SAOS inhibition of proliferation (IC50)
SK-ES-1 = assay: Cell proliferation (CellTiter-Glo, 72 hour), SK-ES-1; format: cell-based; details: Homo sapiens, SK-ES1, Ewing's sarcoma cell line, read-out: SK-ES-1 inhibition of proliferation (IC50)
THP-1 = assay: Cell proliferation (CellTiter-Glo, 72 hour), THP-1; format: cell-based; details: Homo sapiens, blood cancer cell line, read-out: THP-1 inhibition of proliferation (IC50)
MCF10A = assay: Cell proliferation (CellTiter-Glo, 72 hour), MCF10A; format: cell-based; details: Homo sapiens, MCF-10A, breast cancer cell lines table, read-out: MCF10A inhibition of proliferation (IC50)
IRAK1 = target: T5, IRAK1 (Homo sapiens, UniProt P51617); assay: Adapta kinase assay (Life Technologies), IRAK1; format: biochemical; details: for inhibition at 0.1 µM: compound tested at 100 nM, read-out: IRAK1^a percent inhibition; for inhibition at 1 µM: compound tested at 1 μM, read-out: IRAK1^b percent inhibition
T5 construct: purchased Life Technologies (assay service)

CDK1 = target: T6, CDK1 (Homo sapiens, UniProt P06493); assay: Z'-Lyte kinase assay (Life Technologies), CDK1; format: biochemical; details: co-factor cyclin B; for inhibition at 0.1 µM: compound tested at 100 nM, read-out: CDK1^a percent inhibition; for inhibition at 1 µM: compound tested at 1 μM, read-out: CDK1^b percent inhibition
T6 construct: purchased Life Technologies (assay service)

JNK2 = target: T7, JNK2 (Homo sapiens, UniProt P45984); assay: Z'-Lyte kinase assay (Life Technologies), JNK2; format: biochemical; details: for inhibition at 0.1 µM: compound tested at 100 nM, read-out: JNK2^a percent inhibition; for inhibition at 1 µM: compound tested at 1 μM, read-out: JNK2^b percent inhibition
T7 construct: purchased Life Technologies (assay service)

JNK1 = target: T8, JNK1 (Homo sapiens, UniProt P45983); assay: Z'-Lyte kinase assay (Life Technologies), JNK1; format: biochemical; details: for inhibition at 0.1 µM: compound tested at 100 nM, read-out: JNK1^a percent inhibition; for inhibition at 1 µM: compound tested at 1 μM, read-out: JNK1^b percent inhibition
T8 construct: purchased Life Technologies (assay service)

143B = assay: Cell proliferation (CellTiter-Glo, 72 hour), 143B; format: cell-based; details: Homo sapiens, osteosarcoma cell line, read-out: 143B inhibition of proliferation (IC50)
RD-ES = assay: Cell proliferation (CellTiter-Glo, 72 hour), RD-ES; format: cell-based; details: Ewing's sarcoma cell line, read-out: RD-ES inhibition of proliferation (IC50)
MDA-MB231 = assay: Cell proliferation (CellTiter-Glo, 72 hour), MDA-MB231; format: cell-based; details: Homo sapiens, MDA-MB-231, breast cancer cell line, read-out: MDA-MB231 inhibition of proliferation (IC50)
SKBR3 = assay: Cell proliferation (CellTiter-Glo, 72 hour), SKBR3; format: cell-based; details: Homo sapiens, SK-BR-3, breast cancer cell line, read-out: SKBR3 inhibition of proliferation (IC50)
MNNG-HOS Cl #5 = assay: Cell proliferation (CellTiter-Glo, 72 hour), MNNG-HOS Cl #5; format: cell-based; details: osteosarcoma cell line, read-out: MNNG-HOS Cl#5 inhibition of proliferation (IC50)
RS4-11 = assay: Cell proliferation (CellTiter-Glo, 72 hour), RS4-11; format: cell-based; details: Homo sapiens, blood cancer cell line, read-out: RS4-11 inhibition of proliferation (IC50)
CDK5/p35 = CDK5/p35 (Homo sapiens, UniProt Q00535); assay: Z'-Lyte kinase assay (Life Technologies), CDK5/p35; details: for inhibition at 0.1 µM: read-out: CDK5^a,d percent inhibition; for inhibition at 1 µM: read-out: CDK5^b,d percent inhibition
[1] = Table 1C, co-factors cyclin H and MNAT1, read-out: CDK7 IC50
[2] = Table 2, co-factors cyclin H and MNAT1, read-out: CDK7 (calculated IC50)

T8 sequence (P45983 whole entry): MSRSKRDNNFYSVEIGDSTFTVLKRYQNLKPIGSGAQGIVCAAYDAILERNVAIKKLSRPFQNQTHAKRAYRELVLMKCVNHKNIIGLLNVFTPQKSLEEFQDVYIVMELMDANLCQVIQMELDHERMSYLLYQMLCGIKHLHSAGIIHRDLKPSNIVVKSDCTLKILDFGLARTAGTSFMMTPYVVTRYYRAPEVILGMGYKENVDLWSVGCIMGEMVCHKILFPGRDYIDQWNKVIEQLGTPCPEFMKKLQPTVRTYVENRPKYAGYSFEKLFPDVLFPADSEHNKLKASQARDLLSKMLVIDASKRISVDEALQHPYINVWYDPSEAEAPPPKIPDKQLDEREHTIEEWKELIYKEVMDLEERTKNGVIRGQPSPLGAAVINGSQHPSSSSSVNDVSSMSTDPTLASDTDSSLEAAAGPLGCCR
T1 sequence (P49336 whole entry): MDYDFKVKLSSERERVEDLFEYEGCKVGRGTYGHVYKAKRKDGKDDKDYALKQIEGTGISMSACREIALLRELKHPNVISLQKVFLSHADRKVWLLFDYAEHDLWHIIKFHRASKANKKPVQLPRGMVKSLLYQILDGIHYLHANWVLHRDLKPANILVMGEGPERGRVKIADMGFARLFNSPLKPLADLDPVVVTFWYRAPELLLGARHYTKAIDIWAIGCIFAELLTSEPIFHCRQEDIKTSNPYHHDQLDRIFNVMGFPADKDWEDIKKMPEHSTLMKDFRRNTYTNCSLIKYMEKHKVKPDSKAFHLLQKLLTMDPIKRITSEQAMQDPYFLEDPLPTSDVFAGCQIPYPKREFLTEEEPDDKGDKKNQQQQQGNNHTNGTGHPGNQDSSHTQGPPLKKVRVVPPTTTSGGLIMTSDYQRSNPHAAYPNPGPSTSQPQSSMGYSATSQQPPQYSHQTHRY
T1 sequence (P24863 whole entry partner): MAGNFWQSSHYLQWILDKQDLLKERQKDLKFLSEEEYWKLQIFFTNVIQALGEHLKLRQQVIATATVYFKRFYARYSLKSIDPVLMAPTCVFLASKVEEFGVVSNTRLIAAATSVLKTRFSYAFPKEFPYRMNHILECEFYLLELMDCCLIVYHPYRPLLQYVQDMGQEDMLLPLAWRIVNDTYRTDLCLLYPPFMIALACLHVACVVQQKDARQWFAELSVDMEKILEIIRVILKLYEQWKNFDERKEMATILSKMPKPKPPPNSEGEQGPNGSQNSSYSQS
T3 sequence (P50613 whole entry): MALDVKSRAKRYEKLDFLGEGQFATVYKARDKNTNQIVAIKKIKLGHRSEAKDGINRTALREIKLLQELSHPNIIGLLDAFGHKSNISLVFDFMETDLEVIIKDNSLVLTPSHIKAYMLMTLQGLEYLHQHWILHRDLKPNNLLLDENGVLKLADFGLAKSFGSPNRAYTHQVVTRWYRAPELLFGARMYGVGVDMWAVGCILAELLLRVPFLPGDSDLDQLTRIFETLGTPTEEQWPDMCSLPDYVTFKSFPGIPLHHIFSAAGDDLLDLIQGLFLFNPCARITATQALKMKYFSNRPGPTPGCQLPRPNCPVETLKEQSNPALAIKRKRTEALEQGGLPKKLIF
T3 sequence (P51946 whole entry partner): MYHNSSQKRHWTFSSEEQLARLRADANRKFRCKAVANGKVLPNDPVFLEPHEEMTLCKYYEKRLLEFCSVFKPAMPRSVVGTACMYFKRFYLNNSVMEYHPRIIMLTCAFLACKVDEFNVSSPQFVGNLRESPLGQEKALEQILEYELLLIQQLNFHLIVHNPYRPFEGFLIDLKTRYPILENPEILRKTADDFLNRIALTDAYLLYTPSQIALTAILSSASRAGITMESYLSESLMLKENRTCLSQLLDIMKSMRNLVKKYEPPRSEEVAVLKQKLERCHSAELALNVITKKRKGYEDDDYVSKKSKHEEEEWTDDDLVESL
T3 sequence (P51948 whole entry partner): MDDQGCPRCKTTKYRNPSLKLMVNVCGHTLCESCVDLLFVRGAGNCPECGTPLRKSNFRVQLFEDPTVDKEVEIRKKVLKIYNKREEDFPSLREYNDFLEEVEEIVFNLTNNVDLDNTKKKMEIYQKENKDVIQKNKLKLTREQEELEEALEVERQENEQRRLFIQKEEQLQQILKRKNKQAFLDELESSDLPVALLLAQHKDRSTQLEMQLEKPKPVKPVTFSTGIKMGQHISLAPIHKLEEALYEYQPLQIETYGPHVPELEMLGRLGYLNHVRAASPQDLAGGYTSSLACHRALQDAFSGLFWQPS
T4 sequence (Q16584 whole entry): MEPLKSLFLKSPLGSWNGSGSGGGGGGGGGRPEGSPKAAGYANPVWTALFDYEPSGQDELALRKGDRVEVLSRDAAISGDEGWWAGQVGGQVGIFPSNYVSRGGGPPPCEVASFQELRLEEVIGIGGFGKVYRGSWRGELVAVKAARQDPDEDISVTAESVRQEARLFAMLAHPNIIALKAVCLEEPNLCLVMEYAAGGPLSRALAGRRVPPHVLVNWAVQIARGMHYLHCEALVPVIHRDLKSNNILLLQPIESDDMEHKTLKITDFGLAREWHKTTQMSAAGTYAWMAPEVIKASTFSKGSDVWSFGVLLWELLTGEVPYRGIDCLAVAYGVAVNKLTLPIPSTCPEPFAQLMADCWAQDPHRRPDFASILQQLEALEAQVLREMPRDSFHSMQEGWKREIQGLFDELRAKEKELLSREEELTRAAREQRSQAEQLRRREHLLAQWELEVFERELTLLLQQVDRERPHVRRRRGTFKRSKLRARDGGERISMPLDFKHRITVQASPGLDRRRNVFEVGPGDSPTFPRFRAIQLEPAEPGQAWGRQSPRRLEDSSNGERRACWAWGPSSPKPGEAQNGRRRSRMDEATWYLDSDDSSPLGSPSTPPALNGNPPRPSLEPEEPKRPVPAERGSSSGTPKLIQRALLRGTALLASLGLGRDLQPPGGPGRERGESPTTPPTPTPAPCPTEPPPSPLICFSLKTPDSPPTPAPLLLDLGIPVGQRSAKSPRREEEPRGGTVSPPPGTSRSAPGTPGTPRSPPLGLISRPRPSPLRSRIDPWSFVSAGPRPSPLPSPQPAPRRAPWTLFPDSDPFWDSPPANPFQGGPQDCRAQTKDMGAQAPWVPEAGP
T7 sequence (P45984 whole entry): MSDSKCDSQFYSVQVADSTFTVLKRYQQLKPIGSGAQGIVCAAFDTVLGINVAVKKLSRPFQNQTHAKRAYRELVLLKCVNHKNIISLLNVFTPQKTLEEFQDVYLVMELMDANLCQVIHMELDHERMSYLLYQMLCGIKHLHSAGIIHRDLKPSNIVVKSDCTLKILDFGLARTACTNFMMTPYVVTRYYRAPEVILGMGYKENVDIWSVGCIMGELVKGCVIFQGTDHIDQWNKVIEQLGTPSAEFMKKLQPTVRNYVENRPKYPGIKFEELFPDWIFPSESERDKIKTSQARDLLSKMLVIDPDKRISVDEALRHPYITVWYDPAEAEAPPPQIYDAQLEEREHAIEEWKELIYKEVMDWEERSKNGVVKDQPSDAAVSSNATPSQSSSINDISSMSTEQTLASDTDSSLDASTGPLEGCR
Sequence of CDK9/cyclin T1 (P50750 whole entry): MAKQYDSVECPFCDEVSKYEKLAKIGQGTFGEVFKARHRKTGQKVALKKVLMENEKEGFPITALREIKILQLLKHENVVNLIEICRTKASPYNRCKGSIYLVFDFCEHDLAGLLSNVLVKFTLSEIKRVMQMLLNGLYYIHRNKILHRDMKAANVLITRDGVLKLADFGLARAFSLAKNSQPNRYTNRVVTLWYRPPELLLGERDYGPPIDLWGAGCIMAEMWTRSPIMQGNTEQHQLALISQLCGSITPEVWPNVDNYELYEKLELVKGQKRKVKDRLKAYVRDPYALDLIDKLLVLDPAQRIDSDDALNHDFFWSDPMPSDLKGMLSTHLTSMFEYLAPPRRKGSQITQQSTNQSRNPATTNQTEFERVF
Sequence of CDK9/cyclin T1 (O60563 whole entry partner): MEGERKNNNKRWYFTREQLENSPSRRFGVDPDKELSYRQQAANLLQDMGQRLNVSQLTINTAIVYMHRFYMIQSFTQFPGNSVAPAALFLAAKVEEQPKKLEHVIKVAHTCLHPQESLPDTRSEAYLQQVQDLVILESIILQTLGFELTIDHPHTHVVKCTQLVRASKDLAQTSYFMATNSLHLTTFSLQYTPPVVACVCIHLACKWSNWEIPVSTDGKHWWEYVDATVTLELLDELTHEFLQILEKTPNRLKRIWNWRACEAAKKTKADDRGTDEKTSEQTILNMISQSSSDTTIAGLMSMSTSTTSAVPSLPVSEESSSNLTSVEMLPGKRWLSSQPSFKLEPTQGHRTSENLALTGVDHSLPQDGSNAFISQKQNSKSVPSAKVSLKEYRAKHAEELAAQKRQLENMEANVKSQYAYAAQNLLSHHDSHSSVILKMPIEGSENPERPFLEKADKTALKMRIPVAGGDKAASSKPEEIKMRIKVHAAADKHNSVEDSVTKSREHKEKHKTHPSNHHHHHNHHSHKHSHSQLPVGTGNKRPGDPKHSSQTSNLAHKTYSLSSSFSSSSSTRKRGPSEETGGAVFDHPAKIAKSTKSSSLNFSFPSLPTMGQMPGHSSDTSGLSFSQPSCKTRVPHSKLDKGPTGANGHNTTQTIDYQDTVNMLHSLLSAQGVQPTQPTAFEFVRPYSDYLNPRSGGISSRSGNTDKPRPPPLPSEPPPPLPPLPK

- IC50 (CDK9/cyclin K): 100 to 1000 nM
- IC50 (CDK9/cyclin T1): 100 to 1000 nM
- IC50 (CDK8; Table 2, read-out: CDK8 (calculated IC50)): 100 to 1000 nM
- IC50 (CDK2; Table 2, read-out: CDK2 (calculated IC50)): > 1000 nM
- IC50 (CDK7; [1]): < 100 nM
- IC50 (CDK7; [2]): < 100 nM
- IC50 (CDK5/p25): > 1000 nM
SMILES: CN(C)C/C=C/C(=O)Nc1ccc(C(=O)NC2CCCC(Nc3ncc(Cl)c(-c4c[nH]c5ccccc45)n3)C2)cc1 (stereo not shown) [Compound 100, (E)-N-(3-((5-chloro-4-(1H-indol-3-yl)pyrimidin-2-yl)amino)cyclohexyl)-4-(4-(dimethylamino)but-2-enamido)benzamide]

- IC50 (HL60): < 500 nM
- IC50 (MLK3): > 1000 nM
- inhibition at 0.1 µM (MLK3): < 50%
- IC50 (MCF7): > 5000 nM
- IC50 (T47D): > 5000 nM
- IC50 (MV4-11): < 500 nM
- inhibition at 0.1 µM (CDK9/cyclin T1): < 50%
- inhibition at 1 µM (CDK9/cyclin T1): < 50%
- IC50 (Jurkat cells): < 500 nM
- IC50 (SK-ES-1): < 500 nM
- inhibition at 0.1 µM (CDK8): < 50%
- inhibition at 1 µM (CDK8): < 50%
- IC50 (THP-1): < 500 nM
- inhibition at 0.1 µM (IRAK1): < 50%
- inhibition at 1 µM (IRAK1): < 50%
- inhibition at 0.1 µM (CDK1): < 50%
- inhibition at 1 µM (CDK1): < 50%
- inhibition at 0.1 µM (CDK2): < 50%
- inhibition at 1 µM (CDK2): < 50%
- inhibition at 0.1 µM (JNK2): < 50%
- inhibition at 1 µM (JNK2): 50 to 70%
- IC50 (CDK7; [1]): < 100 nM
- IC50 (CDK7; [2]): < 100 nM
- inhibition at 0.1 µM (JNK1): < 50%
- inhibition at 1 µM (JNK1): 50 to 70%
- IC50 (MDA-MB231): < 500 nM
- IC50 (SKBR3): > 5000 nM
- IC50 (CDK5/p25): > 1000 nM
- inhibition at 0.1 µM (CDK5/p25): < 50%
- inhibition at 1 µM (CDK5/p25): < 50%
- IC50 (RS4-11): < 500 nM
- inhibition at 0.1 µM (CDK5/p35): < 50%
- inhibition at 1 µM (CDK5/p35): < 50%
SMILES: CN(C)C/C=C/C(=O)Nc1ccc(C(=O)N[C@H]2CCC[C@@H](Nc3ncc(Cl)c(-c4c[nH]c5ccccc45)n3)C2)cc1 [Compound 102, N-((1S,3R)-3-(5-chloro-4-(1H-indol-3-yl)pyrimidin-2-ylamino)cyclohexyl)-4-((E)-4-(dimethylamino)but-2-enamido)benzamide]
- IC50 (Hs863T): > 5000 nM
- IC50 (A673): < 500 nM
- IC50 (Hs822T): > 5000 nM
- IC50 (hTERT-HME1): < 500 nM
- IC50 (SAOS): < 500 nM
- IC50 (MCF10A): < 500 nM
- IC50 (143B): > 5000 nM
- IC50 (RD-ES): < 500 nM
- IC50 (MNNG-HOS Cl #5): > 5000 nM

- IC50 (HL60): 500 to 5000 nM
- IC50 (MLK3): > 1000 nM
- inhibition at 0.1 µM (MLK3): < 50%
- IC50 (MCF7): 500 to 5000 nM
- IC50 (T47D): > 5000 nM
- IC50 (MV4-11): < 500 nM
- inhibition at 0.1 µM (CDK9/cyclin T1): < 50%
- inhibition at 1 µM (CDK9/cyclin T1): 50 to 70%
- IC50 (Jurkat cells): 500 to 5000 nM
- IC50 (SK-ES-1): 500 to 5000 nM
- inhibition at 0.1 µM (CDK8): < 50%
- inhibition at 1 µM (CDK8): < 50%
- IC50 (THP-1): 500 to 5000 nM
- inhibition at 0.1 µM (IRAK1): < 50%
- inhibition at 1 µM (IRAK1): < 50%
- inhibition at 0.1 µM (CDK1): < 50%
- inhibition at 1 µM (CDK1): < 50%
- inhibition at 0.1 µM (CDK2): < 50%
- inhibition at 1 µM (CDK2): < 50%
- inhibition at 0.1 µM (JNK2): < 50%
- inhibition at 1 µM (JNK2): > 70%
- IC50 (CDK7; [1]): 100 to 1000 nM
- IC50 (CDK7; [2]): 100 to 1000 nM
- inhibition at 0.1 µM (JNK1): < 50%
- inhibition at 1 µM (JNK1): 50 to 70%
- IC50 (MDA-MB231): 500 to 5000 nM
- IC50 (SKBR3): > 5000 nM
- IC50 (CDK5/p25): > 1000 nM
- inhibition at 0.1 µM (CDK5/p25): < 50%
- inhibition at 1 µM (CDK5/p25): < 50%
- IC50 (RS4-11): 500 to 5000 nM
- inhibition at 0.1 µM (CDK5/p35): < 50%
- inhibition at 1 µM (CDK5/p35): < 50%
SMILES: CN(C)C/C=C/C(=O)Nc1ccc(C(=O)N[C@H]2CCC[C@H](Nc3ncc(Cl)c(-c4c[nH]c5ccccc45)n3)C2)cc1 [compound 103]
- IC50 (Hs863T): > 5000 nM
- IC50 (A673): < 500 nM
- IC50 (Hs822T): > 5000 nM
- IC50 (hTERT-HME1): 500 to 5000 nM
- IC50 (SAOS): 500 to 5000 nM
- IC50 (MCF10A): < 500 nM
- IC50 (143B): > 5000 nM
- IC50 (RD-ES): 500 to 5000 nM
- IC50 (MNNG-HOS Cl #5): > 5000 nM
